Measurements from patent US8962842B2, “2-pyridone antimicrobial compositions” (priority 2010, dated 2015).
Like-named read-outs stand apart in the source and are kept apart here.

Assays:
[1] = tested on: Streptococcus pneumonia (5 strains); experiment: MIC range, broader panel of Quotient Bioresearch strains (Table 3); conditions: Streptococcus pneumoniae
[2] = tested on: Bacterial strains injected into thigh muscles; assay type: in vivo, mice; conditions: 30 mg/kg TDS p.o.

## Cc1c(-c2ccc3[nH]ncc3c2)ccn2c(=O)c(C(=O)[O-])cc(C3CC3)c12.[K+] [Example 23 K salt, potassium 1-cyclopropyl-8-(1H-indazol-5-yl)-9-methyl-4-oxo-4H-quinolizine-3-carboxylate]
[1]; read-out: MIC Range Low, Streptococcus pneumonia (5 strains)
  MIC: ≤ 0.015 µg/mL
[1]; read-out: MIC Range Median, Streptococcus pneumonia (5 strains)
  MIC50: 0.03 µg/mL
[2]; E. coli ATCC 25922, mouse thigh
  Log reduction (LgR) from vehicle control (CFU/g): 2.82
[2]; MRSA ATCC 43300, mouse thigh
  Log reduction (LgR) from vehicle control (CFU/g): 4.66
